Where two headings read alike, the source gives them in different places.
Legend:
[1] = target: T1, human recombinant 5-HT2A receptor (Homo sapiens, UniProt P28223); experiment: Test Example 1-2: 5-HT2A receptor binding inhibition test ([3H]-Ketanserin; non-specific ligand Ketanserin)
T1 construct: expressed in transfected cells; host or cells: Jump-In HEK cells (membrane preparation)
Description: The Kd value is calculated when the lot of the cell membrane is changed. 1 mmol/L non-specific binding calculating compound dissolved in DMSO or DMSO is previously dispensed to the microplate by 0.5 µL, and the cell membrane is diluted with an Assay buffer. The radioactive ligand solution is diluted step by step, and counts are checked with a liquid scintillator. The Assay buffer containing diluted cell membranes is dispensed by 50 µL/well into the microplate. The radioactive ligand solution is then dispensed by 50 µL/well into the microplate and the plate is sealed. The microplate is allowed to stand for 1.5 hours at room temperature (25°C). During this time, 50 mmol/L Tris-HCl (pH 7.4) is dispensed by 50 µL/well into the UniFilter plate and allowed to stand at 4°C for 1 hour or longer. Thereafter, filtration is performed with a Cell Harvester (PerkinElmer). The radioactive ligand solution is dispensed by 10 µL/well into empty wells of the UniFilter plate. After drying the UniFilter plate at room temperature, MicroScinti20 is dispensed by 50 µL/well into the UniFilter plate, and the plate is sealed. UniFilter plate is allowed to stand at room temperature overnight. The radioactivity of [^3H]-Ketanserin bound to the 5-HT2A receptor is measured using Microbeta2 (PerkinElmer) at a measurement time of 1 min/well. The Saturation curve is drawn from the measured value, and the Kd value is calculated from the slope of the Scatchard Plot.
A compound solution dissolved in DMSO is dispensed to a microplate by 0.5 µL, and a cell membrane and a hot ligand are each diluted with an Assay buffer. The Assay buffer containing diluted cell membrane is then dispensed by 50 µL/well into the microplate. The radioactive ligand solution is then dispensed by 50 µL/well into the microplate and the plate is sealed. Thereafter, the microplate is allowed to stand at room temperature (25°C) for 1.5 hours. During this time, 50 mmol/L Tris-HCl (pH 7.4) is dispensed by 50 µL/well into the UniFilter plate and allowed to stand at 4°C for 1 hour or longer. Thereafter, filtration is performed with a Cell Harvester (PerkinElmer). After drying the UniFilter plate at room temperature, MicroScinti20 is dispensed by 50 µL/well into the UniFilter plate, and the plate is sealed. UniFilter plate is allowed to stand at room temperature overnight. The radioactivity of [^3H]-Ketanserin bound to the 5-HT2A receptor is measured using Microbeta2 (PerkinElmer) at a measurement time of 1 min/well. Non-specific binding is calculated from the radioactivity of [^3H]-Ketanserin in the presence of 500 µmol/L Ketanserin of unlabeled ligand, and total binding is calculated from the radioactivity of [^3H]-Ketanserin in the absence of the compound of the present invention (Vehicle). Finally, the Ki value is calculated from the dose-response curve.
(§1) (The binding activity of the compound according to the present invention is calculated from the following binding inhibition rate (%).) Inhibition rate (%) = [1−(c−a)/(b−a)] × 100 [formula] • a; average cpm of non-specific binding • b; average cpm of total binding • c; cpm in the presence of the test compound
(§2) The compounds of the present invention were tested essentially as described above.

[2] = target: T2, human recombinant 5-HT2C receptor (Homo sapiens, UniProt P28335); experiment: Test Example 2: 5-HT2C receptor binding inhibition test ([3H]-Mesulergine; non-specific ligand Serotonin HCl); conditions: human serotonin 5-HT2C receptor binding activity
T2 construct: expressed in transfected cells; host or cells: Jump-In HEK cells (membrane preparation)
T2 sequence (P28335 33-458): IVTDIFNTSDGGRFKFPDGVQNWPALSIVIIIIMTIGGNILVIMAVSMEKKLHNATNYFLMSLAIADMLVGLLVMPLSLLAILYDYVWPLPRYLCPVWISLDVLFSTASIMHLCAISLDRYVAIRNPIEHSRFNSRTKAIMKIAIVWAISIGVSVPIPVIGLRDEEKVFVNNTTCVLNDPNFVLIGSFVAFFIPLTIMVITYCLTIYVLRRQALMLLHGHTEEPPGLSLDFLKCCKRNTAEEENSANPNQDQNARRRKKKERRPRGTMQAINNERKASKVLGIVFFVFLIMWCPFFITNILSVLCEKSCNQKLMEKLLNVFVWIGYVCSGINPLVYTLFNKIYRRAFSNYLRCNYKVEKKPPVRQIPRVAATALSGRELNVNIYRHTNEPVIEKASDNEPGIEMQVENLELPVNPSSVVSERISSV
Description: The Kd value is calculated when the lot of the cell membrane is changed. 1 mmol/L non-specific binding calculating compound dissolved in DMSO or DMSO is previously dispensed to the microplate by 0.5 µL, and the cell membrane is diluted with an Assay buffer. The radioactive ligand solution is diluted step by step, and counts are checked with a liquid scintillator. The Assay buffer containing diluted cell membranes is dispensed by 50 µL/well into the microplate. The radioactive ligand solution is then dispensed by 50 µL/well into the microplate and the plate is sealed. The microplate is allowed to stand at 37°C for 2 hours. During this time, 50 mmol/L Tris-HCl (pH 7.4) is dispensed by 50 µL/well into the GF/B UniFilter plate and allowed to stand at 4°C for 1 hour or longer. Thereafter, filtration is performed with a Cell Harvester (PerkinElmer). The radioactive ligand solution is dispensed by 10 µL/well into empty wells of the GF/B UniFilter plate. After drying the GF/B UniFilter plate at room temperature, MicroScinti20 is dispensed by 50 µL/well into the GF/B UniFilter plate, and the plate is sealed. GF/B UniFilter plate is allowed to stand at room temperature overnight. The radioactivity of [^3H]-Mesulergine bound to the 5-HT2C receptor is measured using Microbeta2 (PerkinElmer) at a measurement time of 1 min/well. The Saturation curve is drawn from the measured value, and the Kd value is calculated from the slope of the Scatchard Plot.
A compound solution dissolved in DMSO is dispensed to a microplate by 0.5 µL, and a cell membrane and a hot ligand are each diluted with an Assay buffer. The Assay buffer containing diluted cell membrane is then dispensed by 50 µL/well into the microplate. The radioactive ligand solution is then dispensed by 50 µL/well into the microplate and the plate is sealed. The microplate is then allowed to stand at 37°C for 2 hours. During this time, 50 mmol/L Tris-HCl (pH 7.4) is dispensed by 50 µL/well into the GF/B UniFilter plate and allowed to stand at 4°C for 1 hour or longer. Thereafter, filtration is performed with a Cell Harvester (PerkinElmer). After drying the GF/B UniFilter plate at room temperature, MicroScinti20 is dispensed by 50 µL/well into the GF/B UniFilter plate, and the plate is sealed. GF/B UniFilter plate is allowed to stand at room temperature overnight. The radioactivity of [^3H]-Mesulergine bound to the 5-HT2C receptor is measured using Microbeta2 (PerkinElmer) at a measurement time of 1 min/well. Non-specific binding is calculated from the radioactivity of [^3H]-Mesulergine in the presence of 500 µmol/L Serotonin HCl of unlabeled ligand, and total binding is calculated from the radioactivity of [^3H]-Mesulergine in the absence of the compound of the present invention (Vehicle). Finally, the Ki value is calculated from the dose-response curve.
as §1, §2

[3] = [3H]-Ketanserin, non-specific binding with 500 µmol/L Ketanserin, room temperature (25°C), 1.5 hours, read-out: h 5-HT2A Ki

T1 sequence (P28223 whole entry): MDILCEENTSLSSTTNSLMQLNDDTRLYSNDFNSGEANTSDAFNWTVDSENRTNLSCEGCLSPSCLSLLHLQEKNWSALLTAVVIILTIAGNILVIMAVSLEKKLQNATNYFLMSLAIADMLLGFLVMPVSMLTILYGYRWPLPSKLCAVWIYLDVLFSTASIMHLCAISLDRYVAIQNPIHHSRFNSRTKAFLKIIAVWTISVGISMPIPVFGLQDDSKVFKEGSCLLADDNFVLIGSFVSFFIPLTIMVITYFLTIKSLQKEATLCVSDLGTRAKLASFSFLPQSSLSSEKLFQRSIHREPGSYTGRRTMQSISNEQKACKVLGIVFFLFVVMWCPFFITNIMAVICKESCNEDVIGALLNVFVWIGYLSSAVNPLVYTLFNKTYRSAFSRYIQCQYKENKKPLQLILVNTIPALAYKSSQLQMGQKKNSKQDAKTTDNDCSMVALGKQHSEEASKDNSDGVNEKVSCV

SMILES	Ki [1, 3]	Ki [2]	Ki [1]
Cc1nc(C)c(-c2cc(Nc3ncc(Cl)cc3F)c(F)cc2OCCO)c(C)n1 [Compound I-166]	0.67 nM	5.57 nM	–
COCc1nc(C)c(-c2cc(Nc3ncc(-c4cc(F)cc(F)c4)cc3Cl)ncc2OCCO)c(C)n1 [Compound I-258]	0.933 nM	0.301 nM	–
Cn1ncc(Cl)c1-c1cc(Nc2ncc(C(F)(F)F)cc2F)c(Cl)cc1OCCO [Compound I-409]	0.42 nM	2.12 nM	–
COCc1nc(C)c(-c2cc(Nc3ccc(-c4ccc(F)cc4)cn3)ncc2OCCO)c(C)n1 [Compound I-272]	0.343 nM	1.4 nM	–
Cn1ncc(Br)c1-c1nc(Nc2ccc(Cl)c(Cl)c2)ncc1OCCO [Compound I-344]	0.26 nM	6.63 nM	–
COCc1nc(C)c(-c2cc(Nc3ncc(-c4ncc(C(F)(F)F)s4)cc3Cl)ncc2OCCO)c(C)n1 [Compound I-329]	0.896 nM	0.282 nM	–
Cn1ncc(Br)c1-c1nc(Nc2ccc(OC(F)(F)F)cc2)ncc1OCCO [Compound I-347]	0.262 nM	1.08 nM	–
Cc1nc(OCC(F)F)nc(C)c1-c1cc(Nc2ncc(C(F)(F)F)cc2Cl)ncc1OCCO [Compound I-211]	0.706 nM	1.89 nM	–
Cn1ncc(Br)c1-c1cc(Nc2ccc(OC3CC3)cn2)ncc1OCCO [Compound I-185]	0.42 nM	2.76 nM	–
COCc1nc(C)c(-c2nc(Nc3ccc(OC(F)(F)F)c(C)n3)c(F)cc2OCCO)c(C)n1 [Compound I-395]	3.37 nM	1.84 nM	–
Cc1nc(C)c(-c2nc(Nc3ccc(-c4ccc(C(F)(F)F)nc4)cn3)c(F)cc2O[C@H](C)CO)c(C)n1 [Compound I-364]	3.34 nM	12.2 nM	–
Cc1nc(N2CCCC2=O)nc(C)c1-c1cc(Nc2ncc(C(F)(F)F)cc2Cl)ncc1OCCO [Compound I-215]	4.48 nM	9.55 nM	–
Cn1ncc(Br)c1-c1nc(Nc2ccc(Cl)cc2Cl)ncc1OCCO [Compound I-342]	0.256 nM	1.88 nM	–
Cn1ncc(Cl)c1-c1cc(Nc2ncc(C(F)(F)F)cn2)c(Cl)cc1OCCO [Compound I-410]	0.573 nM	3.94 nM	–
Cc1cc(CO)ccc1-c1cc(Nc2ncc(C(F)(F)F)cc2F)ncc1OCCO [Compound I-372]	0.847 nM	9.14 nM	–
Cc1cc(Cl)cnc1Nc1cc(-c2c(C)cnn2C)c(OCCO)cc1F [Compound I-172]	0.812 nM	2.49 nM	–
Cn1ncc(Br)c1-c1nc(Nc2cnc(C(F)(F)F)nc2)c(F)cc1OCCO [Compound I-289]	0.793 nM	60.2 nM	–
Cn1ncc(C#N)c1-c1nc(Nc2ccc(-c3ccc(F)cc3)cn2)c(F)cc1OCCO [Compound I-190]	0.493 nM	9.08 nM	–

SMILES	Ki [1, 3]	Ki [2]	Ki [1]
COCc1nc(C)c(-c2cc(Nc3ncc(-c4cnn(C(F)(F)F)c4)cc3Cl)ncc2OCCO)c(C)n1 [Compound I-243]	3.58 nM	2.53 nM	–
Cn1ncc(Br)c1-c1nc(Nc2ccc(C#N)cc2)ncc1OCCO [Compound I-352]	0.202 nM	5.99 nM	–
COCc1nc(C)c(-c2cc(Nc3ncc(-c4nc(C(F)(F)F)co4)cc3Cl)ncc2OCCO)c(C)n1 [Compound I-240]	2.05 nM	1.54 nM	–
Cc1nc(C)c(-c2cc(Nc3ccc(-c4ccc(C(F)(F)F)cc4)cn3)ncc2OCCO)c(C)n1 [Compound I-303]	0.379 nM	0.278 nM	–
Cc1nc(C)c(-c2cc(Nc3ncc(C(F)(F)F)cc3Cl)ncc2OCCO)c(C)n1 [Compound I-390]	1.08 nM	3.91 nM	–
COC(=O)c1ccc(-c2cc(Nc3ncc(C(F)(F)F)cc3F)ncc2OCCO)c(C)c1 [Compound I-370]	1.03 nM	86.8 nM	–
COCc1nc(C)c(-c2cc(Nc3ncc(Br)cc3Cl)ncc2OCCO)c(C)n1 [Compound I-323]	2.14 nM	2.81 nM	–
O=C1NCc2c1cncc2-c1cc(Nc2ncc(C(F)(F)F)cc2F)ncc1OCCO [Compound I-368]	2.13 nM	51.2 nM	–
Cc1ncnc(C)c1-c1cc(Nc2ncc(C(F)(F)F)cc2Cl)ncc1OCCO [Compound I-202]	0.828 nM	9.12 nM	–
Cc1cc(OC(F)F)cnc1Nc1cc(-c2c(C)cnn2C)c(OCCO)cn1 [Compound I-176]	0.453 nM	6.81 nM	–
COCc1nc(C)c(-c2cc(Nc3ncc(C(F)(F)F)cc3F)ncc2OCCO)c(C)n1 [Compound I-199]	6.09 nM	5.98 nM	–
Cc1nc(C)c(-c2cc(Nc3ccc(-c4ccc(Cl)cc4)cn3)ncc2OCCO)c(C)n1 [Compound I-310]	0.194 nM	0.608 nM	–
Cc1nc(C)c(-c2cc(Nc3ccc(-c4ccc(F)cc4)cn3)ncc2OCCO)c(C)n1 [Compound I-309]	0.247 nM	1.37 nM	–
Cc1cnn(Cc2nc(C)c(-c3cc(Nc4ncc(C(F)(F)F)cc4Cl)ncc3OCCO)c(C)n2)c1 [Compound I-379]	1.13 nM	0.791 nM	–
COc1nc(C)c(-c2cc(Nc3ncc(C(F)(F)F)cc3Cl)ncc2OCCO)c(C)n1 [Compound I-210]	0.804 nM	3.67 nM	–
Cn1ncc(Br)c1-c1cc(Nc2ccc(OC(F)(F)F)cn2)ncc1OCCO [Compound I-277]	–	0.217 nM	0.186 nM
Cc1cc(OC(F)(F)F)cnc1Nc1cc(-c2c(C)cnn2C)c(OCCO)cn1 [Compound I-180]	0.346 nM	1.86 nM	–

— patent EP4631938A1, “NITROGEN-CONTAINING HETEROCYCLE WITH SEROTONIN RECEPTOR-BINDING ACTIVITY AND CARBOCYCLIC DERIVATIVE” (Shionogi & Co., Ltd, priority 2022, dated 2024)
